Measurements taken from patent US20240132484A1, “BROAD SPECTRUM ANTIVIRAL COMPOUNDS TARGETING THE SKI COMPLEX” (priority 2020, published 2024).
Values joined by “and” are separate entries in the source; they are usually repeats but may differ in a detail not shown here. Identical values can stand only once. Like-named read-outs stand apart in the source and are kept apart here.

Columns and labels:
cells (nuclei count) = details: for Relative cell count to DMSO controls, Average 1 μM / Relative cell count to DMSO controls, Average 5 μM / Relative cell count to DMSO controls, Average 10 μM / Relative cell count to DMSO controls, Average 25 μM / Relative cell count to DMSO controls, Average 50 μM: toxicity data, 100=DMSO control; for Toxicity Data, Average, Mean percentage relative to DMSO control: Average of Exp 1 (SMW491) and Exp 2 (SMW492); for Relative cell count to DMSO controls, Average (for correlation analysis): average value over the 5 tested concentrations (1 to 50 uM); for Toxicity Data: Average, Mean: average of Exp 1-3 (SMW475, SMW477, SMW478), n 9
SARS2 = assay type: cell-based, SARS-CoV-2; details: for Percentage Infection Relative to Appropriate DMSO Control with Avg Background Subtraction: Nunc Celigo plates; for Percentage Inhibition Average 1 μM / Screening data (Relative infection to DMSO controls) Average 1 μM: SARS2, 1 μM; for Screening data (Relative infection to DMSO controls) Average 1 μM / Screening data (Relative infection to DMSO controls) Average 5 μM / Screening data (Relative infection to DMSO controls) Average 10 μM / Screening data (Relative infection to DMSO controls) Average 25 μM / Screening data (Relative infection to DMSO controls) Average 50 μM / Average (relative infection to DMSO over the 5 tested concentrations): 100=DMSO control; for Percentage Inhibition Average 5 μM / Screening data (Relative infection to DMSO controls) Average 5 μM: SARS2, 5 μM; for Percentage Inhibition Average 10 μM / Screening data (Relative infection to DMSO controls) Average 10 μM: SARS2, 10 μM; for Percentage Inhibition Average 25 μM / Screening data (Relative infection to DMSO controls) Average 25 μM: SARS2, 25 μM; for Percentage Inhibition Average 50 μM / Screening data (Relative infection to DMSO controls) Average 50 μM: SARS2, 50 μM; for Average (relative infection to DMSO over the 5 tested concentrations): SARS2, average over 1 to 50 uM; for Infection Data, Average, Mean: average of Exp 1-2 (SMW491, SMW492); for Infection Data: Percentage Infection Relative to Appropriate DMSO Control: avg background subtraction, replicate wells; for Infection Data: Average, Mean: average of Exp 1-3 (SMW475, SMW477, SMW478), n 9

In the case of CCN(CC)CCN(Cc1ccncc1)C(=O)c1cccs1 [SILCS38], the “Relative cell count to DMSO controls, Average 1 μM” value (cells (nuclei count)) is reported as 111.85, the “Relative cell count to DMSO controls, Average 5 μM” value (cells (nuclei count)) is reported as 110 and the “Relative cell count to DMSO controls, Average 10 μM” value (cells (nuclei count)) is reported as 115.05. For the same compound, the “Relative cell count to DMSO controls, Average 25 μM” value (cells (nuclei count)) was 107.71, the “Relative cell count to DMSO controls, Average 50 μM” value (cells (nuclei count)) was 105.21 and the “Toxicity Data, Average, Mean percentage relative to DMSO control” value (cells (nuclei count); n=4, 1 uM) was 111.85%. The “Toxicity Data, Average, Mean percentage relative to DMSO control” value (cells (nuclei count); n=4, 5 uM) was 110.00%, the “Toxicity Data, Average, Mean percentage relative to DMSO control” value (cells (nuclei count); n=4, 10 uM) was 115.05% and the “Toxicity Data, Average, Mean percentage relative to DMSO control” value (cells (nuclei count); n=4, 25 uM) was 107.71%. For the same compound, the “Toxicity Data, Average, Mean percentage relative to DMSO control” value (cells (nuclei count); n=4, 50 uM) was 105.21%, the “Relative cell count to DMSO controls, Average (for correlation analysis)” value (cells (nuclei count)) was 109.96 and the “Percentage Infection Relative to Appropriate DMSO Control with Avg Background Subtraction” value (SARS2; Exp 1 (SMW491), 1 uM) was 101.61% and 80.30%. For the same compound, the “Percentage Infection Relative to Appropriate DMSO Control with Avg Background Subtraction” value (SARS2; Exp 1 (SMW491), 5 uM) was 101.51% and 104.07%, the “Percentage Infection Relative to Appropriate DMSO Control with Avg Background Subtraction” value (SARS2; Exp 1 (SMW491), 10 uM) was 91.03% and 87.80% and the “Percentage Infection Relative to Appropriate DMSO Control with Avg Background Subtraction” value (SARS2; Exp 1 (SMW491), 25 uM) was 110.71% and 103.81%. For the same compound, the “Percentage Infection Relative to Appropriate DMSO Control with Avg Background Subtraction” value (SARS2; Exp 1 (SMW491), 50 uM) was 96.25% and 89.03%, the “Percentage Infection Relative to Appropriate DMSO Control with Avg Background Subtraction” value (SARS2; Exp 2 (SMW492), 1 uM) was 74.34% and 48.74% and the “Percentage Infection Relative to Appropriate DMSO Control with Avg Background Subtraction” value (SARS2; Exp 2 (SMW492), 5 uM) was 72.80% and 60.72%. The “Percentage Infection Relative to Appropriate DMSO Control with Avg Background Subtraction” value (SARS2; Exp 2 (SMW492), 10 uM) was 63.76% and 49.65%, the “Percentage Infection Relative to Appropriate DMSO Control with Avg Background Subtraction” value (SARS2; Exp 2 (SMW492), 50 uM) was 90.22% and 70.45% and the “Percentage Inhibition Average 1 μM” value (SARS2) was 23.75%. For the same compound, the “Screening data (Relative infection to DMSO controls) Average 1 μM” value (SARS2) was 76.25, the “Percentage Inhibition Average 5 μM” value (SARS2) was 15.22% and the “Screening data (Relative infection to DMSO controls) Average 5 μM” value (SARS2) was 84.78. For the same compound, the “Percentage Inhibition Average 10 μM” value (SARS2) was 26.94%, the “Screening data (Relative infection to DMSO controls) Average 10 μM” value (SARS2) was 73.06 and the “Percentage Inhibition Average 25 μM” value (SARS2) was 1.37%. The “Screening data (Relative infection to DMSO controls) Average 25 μM” value (SARS2) was 98.63, the “Percentage Inhibition Average 50 μM” value (SARS2) was 13.51% and the “Screening data (Relative infection to DMSO controls) Average 50 μM” value (SARS2) was 86.49. For the same compound, the “Average (relative infection to DMSO over the 5 tested concentrations)” value (SARS2) was 83.84, the “Infection Data, Average, Mean” value (SARS2; n 4, 1 uM) was 76.25% and the “Infection Data, Average, Mean” value (SARS2; n 4, 5 uM) was 84.78%. The “Infection Data, Average, Mean” value (SARS2; n 4, 10 uM) was 73.06%, the “Infection Data, Average, Mean” value (SARS2; n 4, 25 uM) was 98.63% and the “Infection Data, Average, Mean” value (SARS2; n 4, 50 uM) was 86.49%.
For CN(C)CCN(Cc1ccsc1)Cc1cccc(-c2ccsc2)c1 [SILCS20], the “Toxicity Data: Average, Mean” value (cells (nuclei count); 1 uM) was 96.85%, the “Relative cell count to DMSO controls, Average 1 μM” value (cells (nuclei count)) was 96.85 and the “Toxicity Data: Average, Mean” value (cells (nuclei count); 5 uM) was 116.85%. The “Relative cell count to DMSO controls, Average 5 μM” value (cells (nuclei count)) was 116.85, the “Toxicity Data: Average, Mean” value (cells (nuclei count); 10 uM) was 138.88% and the “Relative cell count to DMSO controls, Average 10 μM” value (cells (nuclei count)) was 138.88. For the same compound, the “Toxicity Data: Average, Mean” value (cells (nuclei count); 25 uM) was 78.06%, the “Relative cell count to DMSO controls, Average 25 μM” value (cells (nuclei count)) was 78.06 and the “Toxicity Data: Average, Mean” value (cells (nuclei count); 50 uM) was 7.37%. For the same compound, the “Relative cell count to DMSO controls, Average 50 μM” value (cells (nuclei count)) was 7.37, the “Relative cell count to DMSO controls, Average (for correlation analysis)” value (cells (nuclei count)) was 87.60 and the “Infection Data: Percentage Infection Relative to Appropriate DMSO Control” value (SARS2; 1 uM, Exp 1 (SMW475)) was 104.96% and 108.84% and 98.09%. The “Infection Data: Percentage Infection Relative to Appropriate DMSO Control” value (SARS2; 1 uM, Exp 2 (SMW477)) was 151.25% and 151.34% and 136.14%, the “Infection Data: Percentage Infection Relative to Appropriate DMSO Control” value (SARS2; 1 uM, Exp 3 (SMW478)) was 92.92% and 94.78% and 98.52% and the “Infection Data: Average, Mean” value (SARS2; 1 uM) was 115.20%. For the same compound, the “Infection Data: Percentage Infection Relative to Appropriate DMSO Control” value (SARS2; 5 uM, Exp 1 (SMW475)) was 71.77% and 48.90% and 69.38%, the “Infection Data: Percentage Infection Relative to Appropriate DMSO Control” value (SARS2; 5 uM, Exp 2 (SMW477)) was 133.79% and 116.24% and 114.33% and the “Infection Data: Percentage Infection Relative to Appropriate DMSO Control” value (SARS2; 5 uM, Exp 3 (SMW478)) was 62.84% and 53.65% and 64.98%. For the same compound, the “Infection Data: Average, Mean” value (SARS2; 5 uM) was 81.76%, the “Infection Data: Percentage Infection Relative to Appropriate DMSO Control” value (SARS2; 10 uM, Exp 1 (SMW475)) was 45.14% and 27.86% and 26.38% and the “Infection Data: Percentage Infection Relative to Appropriate DMSO Control” value (SARS2; 10 uM, Exp 2 (SMW477)) was 76.01% and 46.79% and 30.46%. The “Infection Data: Percentage Infection Relative to Appropriate DMSO Control” value (SARS2; 10 uM, Exp 3 (SMW478)) was 30.07% and 13.27% and 56.68%, the “Infection Data: Average, Mean” value (SARS2; 10 uM) was 39.18% and the “Infection Data: Percentage Infection Relative to Appropriate DMSO Control” value (SARS2; 25 uM, Exp 1 (SMW475)) was 13.25% and 8.47% and 6.46%. The “Infection Data: Percentage Infection Relative to Appropriate DMSO Control” value (SARS2; 25 uM, Exp 2 (SMW477)) was 9.75% and 7.72% and 7.01%, the “Infection Data: Percentage Infection Relative to Appropriate DMSO Control” value (SARS2; 25 uM, Exp 3 (SMW478)) was 6.76% and 9.52% and 8.68% and the “Infection Data: Average, Mean” value (SARS2; 25 uM) was 8.63%. For the same compound, the “Infection Data: Percentage Infection Relative to Appropriate DMSO Control” value (SARS2; 50 uM, Exp 1 (SMW475)) was −0.47% and 0.47% and 1.44%, the “Infection Data: Percentage Infection Relative to Appropriate DMSO Control” value (SARS2; 50 uM, Exp 2 (SMW477)) was −0.57% and −0.19% and −1.43% and the “Infection Data: Percentage Infection Relative to Appropriate DMSO Control” value (SARS2; 50 uM, Exp 3 (SMW478)) was 125.56% and 159.57% and 149.88%. For the same compound, the “Infection Data: Average, Mean” value (SARS2; 50 uM) was 48.15%, the “Percentage Inhibition Average 1 μM” value (SARS2) was −15.20% and the “Screening data (Relative infection to DMSO controls) Average 1 μM” value (SARS2) was 115.20. For the same compound, the “Percentage Inhibition Average 5 μM” value (SARS2) was 18.24%, the “Screening data (Relative infection to DMSO controls) Average 5 μM” value (SARS2) was 81.76 and the “Percentage Inhibition Average 10 μM” value (SARS2) was 60.82%. The “Screening data (Relative infection to DMSO controls) Average 10 μM” value (SARS2) was 39.18, the “Percentage Inhibition Average 25 μM” value (SARS2) was 91.37% and the “Screening data (Relative infection to DMSO controls) Average 25 μM” value (SARS2) was 8.63. The “Percentage Inhibition Average 50 μM” value (SARS2) was 51.85%, the “Screening data (Relative infection to DMSO controls) Average 50 μM” value (SARS2) was 48.15 and the “Average (relative infection to DMSO over the 5 tested concentrations)” value (SARS2) was 58.58.
